System: GAPDH mRNA
Test: RNAi activity of GAPDH-targeting siRNA, expression of mRNA of GAPDH, HPRT1 internal control (Test Example 5)
Format: cell-based, human
Procedure: The RNAi activity of a GAPDH-targeting siRNA having 8-Br-dA at the 5′ end of the antisense strand was evaluated by measuring an inhibitory effect on the expression of mRNA of GAPDH as described below. In a culture dish (Multidish 24 wells, Cat. No. 142475, manufactured by Nunc, Inc.), human cervical cancer-derived cell line Hela cells (CCL-2, purchased from ATCC) were suspended in RPMI medium (Invitrogen Life Technologies, 11875093) containing 10% fetal bovine serum, and 500 μL of the resulting cell suspension was inoculated into each well to give 50000 cells/well. […]
The cells after introduction of the siRNA were cultured under the conditions of 37° C. and 5% CO2 for 24 hours. […] NM_000942) were subjected to a PCR reaction by the Taqman probe method using ABI 7900HT Fast (ABI), and the levels of amplified mRNAs of the respective genes were measured. […] Further, in the negative control group, the level of the mRNA of GAPDH and the level of the amplified mRNA of PPIB were measured in the same manner, respectively, and a semi-quantitative level of the mRNA of GAPDH was calculated using the level of the amplified mRNA of PPIB as an internal control.
The activity of the GAPDDH-targeting siRNA obtained in Example 6 was evaluated by measuring an inhibitory effect on the expression of mRNA of GAPDH in the same manner as in Test Example 4. […]

In the case of “1096-5-F-dU: GAPDH-targeting siRNA, antisense XUACCAGGAAAUGAGCUUGAC, X = 5-fluoro-2′-deoxyuridine monophosphate”, the “level of target mRNA” value (relative ratio with negative control group taken as 1, concentration 1 pM) is reported as 0.183 and the “level of target mRNA” value (relative ratio with negative control group taken as 1, concentration 10 pM) is reported as 0.059.
